The results in this text go back to patent US20130177921A1, “Detection of Damage to DNA” (priority 2010, published 2013).

The structures appear in SMILES notation.

The test system of assay [1] is DT40 cells. The conditions noted are these: cells exposed to 20 μM H2O2. How it is done:
(§1) Avian DT40 cells (38, 39) were grown at 39.5° C., the normal Avian body temperature, in a humidified atmosphere supplemented with 5% CO2 as a suspension in RPMI-1640 (Invitrogen) supplemented with 10% fetal bovine serum (Sigma), 1% chicken serum (Sigma and Invitrogen), and containing 100 μg/ml penicillin and 100 μg/ml streptomycin (Invitrogen).
DNA was isolated from DT40 cells in normal culture conditions or DT40 cells experiencing oxidative stress and processed for slot-blot analysis as described previously (2).

Assay [2] concerns DT40 cells. The conditions noted are these: H2O2-treated versus untreated cells. How it is done: as §1
The subject of assay [3] is DT40 cells.
Description: Briefly, cells growing in culture were first labeled for 10 min in medium with 100 μM iododeoxyurine (IdU), and then centrifuged to remove the medium containing IdU. […] After exposure to the second halogenated nucleotide, the cells were harvested by centrifugation and resuspended in ice cold PBS at about 200 cells/μl.
For the detection of IdU and CIdU within the DNA fiber spreads, the slides were treated with 2.5 M HCl for 30 min, washed several times in PBS, and blocked in 3% bovine serum albumin in PBS for 60 min. […]
To determine the number of nt that had been replicated (i.e., incorporated IdU or CIdU) in normal culture conditions, the total amount of fluorescence from both IdU and CIdU was measured. The number of AP sites co-localized in areas where DNA had replicated was assessed using the co-localization function provided by Image J. In this series of experiments, AP sites were marked by blue signal and those that co-localized with areas undergoing replication were counted using the particle counter function of Image J. To determine the amount of replicating DNA expressed in nt, the total amount of red and green fluorescence (IdU and CIdU, respectively) was determined and then divided by fluorescence intensity per nt, as described above.
To determine the number of AP sites per unit length of DNA in areas undergoing replication, cells were first pulsed with IdU (a nucleotide precursor), and then pulsed with CIdU (a different precursor). […] Fluorescently labeled AP sites were readily detected and could be quantified with respect to the fluorescent tracks of IdU and CIdU labeled DNA (see Materials and Methods).
The test system of assay [4] is MCF7 human breast cancer cells. The assay is described as follows: Dox-induced DNA damage (AP sites) in MCF7 cells used as surrogate CTCs, extended DNA fibers. Format: cell-based. The text has this: MCF7 cells were exposed to Doxorubicin (Dox) in culture (1) or exposed to Dox in culture and then processed using the Mag Sweeper Oft MCF7 cells processed identically but not treated with Dox served as controls in each case. Cells were next were recovered, put onto slides and lysed and DNA extended
MCF7 cells were exposed to Doxorubicin (Dox) alone (first three bars) or exposed to Dox first then isolated using Mag Sweeper (fourth, filth, sixth bars). Thereafter. DNA was extended on slides following cell lysis and DNA and sites of DNA damage were stained with fluorescent probes Images of extended fluorescently-labeled DNA fibers were obtained and DNA content and DNA damage site number were determined by computer analysis of the images. Results of the analysis of DNA damage in the bars is reported with the ordinate of the graph scaled as the number of DNA damage sites, in this case AP sites, per 10^6 nucleotides in length
In an initial study, MCF7 human breast cancer cells, a line of human breast adenocarcinoma, were used to simulated CTCs. The “simulated CTCs” were exposed to 0, 0.33, and 0.66 μM doxorubicin (Dox). Doxorubicin is a principal chemotherapeutic agent for breast cancer and the doses of the drug were chosen to approximate dose levels achieved in patients. In one experiment, untreated cells and cells treated with Dox were harvested 16 hours after starting sham or drug treatment and slides of extended DNA were prepared from the untreated and treated cells. The amount of DNA damage for each treatment condition was then determined. This experiment was designed to test whether drug exposure of the cells alone increased DNA damage in the form of abasic (AP) sites (FIG. 13, upper path). Next, untreated cells and cells treated with Dox were collected 16 hours after starting sham or drug treatment. The cells were subjected to a CTC isolation technique referred to as the ‘Mag Sweeper’ process (15) and the recovered cells' DNA harvested and placed on slides to extend the DNA and then the DNA analyzed for damage as described herein ([…], lower path).

Take `OO` [H2O2, hydrogen peroxide]: the “number of AP sites per 10^6 nt, slot blot analysis” value in assay [1] is given as 7.7 AP sites per 10^6 nt. In assay [2], the “clustering of AP sites” value is “more common”. Further, the “number of AP sites per 10^6 nt in CIdU tracks” value in assay [3] (replicating DNA labeled after H2O2 exposure (20 μM, FIG. 3)) is 20.8 per 10^6 nt. Besides, the “number of AP sites per 10^6 nt in IdU tracks” value in assay [3] (replicating DNA labeled before H2O2 exposure (20 μM, FIG. 3)) is 12.9 per 10^6 nt. Further, the “increase of AP sites per 10^6 nt in replicating regions exposed to H2O2” value in assay [3] (replicating regions versus global DNA, H2O2-exposed cells) is given as 50 to 150%.
As for `COc1cccc2c1C(=O)c1c(O)c3c(c(O)c1C2=O)C[C@@](O)(C(=O)CO)C[C@@H]3O[C@H]1C[C@H](N)[C@H](O)[C@H](C)O1` [Dox, Doxorubicin], the “DNA damage (AP sites) after Mag Sweeper isolation” value in assay [4] (0.33 and 0.66 μM Dox, 16 hours, then cells processed with Mag Sweeper, versus untreated cells) is given as “AP sites increased after Dox treatment”. Besides, in assay [4] (0.33 and 0.66 μM Dox, harvested 16 hours after start, Dox alone, versus untreated cells), the “DNA damage (level of AP sites)” value was “notably increased DNA damage”. In assay [4] (0.66 versus 0.33 μM Dox, with and without Mag Sweeper), the “dose dependence of DNA damage” value is “more damage detected with the higher dose”.
